These results are taken from patent US6265423A, “Aromatic polycyclic retinoid-type derivatives, method for preparing same, and use thereof for making pharmaceutical and cosmetic compositions” (priority 1996, dated 2001).

Entries after “also recorded” stand apart in the source; their conditions may differ.

One data set deals with T-47D lineage. Description: SAMBA image analysis test. It is filed as cell-based, human. The source says: The molecules which have shown themselves to be the most interesting in the MTT test have been evaluated in an image analysis test called SAMBA. In effect, the recent advances in the field of image analysis have allowed new approaches to the evaluation of different cellular kinetic parameters and the measurement of the distribution of chromatin. The data thereby provided are processed using different statistical tests.
The use of the Systeme d'Analyses Microscopiques a Balayage Automatique 2005 (SAMBA 2005, Alcatel TITN, France), (System of Microscopic Analyses with Automatic Sweep 2005) permits measurement of the influence of the compounds researched at three levels:
The cells in exponential growth are cultured on small glass slip plates (Kiss R. et al. Eur. J. Cancer, 27, 1268-1274, 1991) at the rate of from […] cells/ml (depending on the cellular line being considered) in 3 ml of minimum essential medium (MEM, Gibco). […]
The interest in the Feulgen coloration resides in the possibility of colouring the DNA in a specific and stoichiometric fashion (Giroud F., Cell, 44, 177-188, 1982; Kiss R. et al., J. Histochem. Cytochem., 41, 6, 935-945, 1993). For each experimental condition, 900 nuclei are analysed by the image analyser. […]
These 15 parameters are calculated by specific software, from: […]

Data set [1] relates to ZR-75-1, T-47D, A549 and A-427 lineages. Description: MTT test, tumour cell lines overall. It counts as cell-based, human.
Protocol: This test is based on the mitochondrial reduction by living metabolically active cells of the MTT (3-(4,5-dimethylthiazol-2-yl)-2,5-diphenyltetrazolium bromide) of yellowish colour into a blue coloured product, formazan. The quantity of formazan obtained is directly proportional to the number of living cells. After incubation of the cells for 24 hours in microplates with 96 flat bottomed wells, the culture medium is replaced by 100 μl of fresh culture medium containing the drug to be tested.
The microplates are then incubated for 3 hours at 37° C. and centrifuged for 10 minutes at 400 g (GPR centrifuge, Beckman). The MTT solution is replaced by 100 μl of dimethylsulphoxide (Merck). The microplates are agitated (Vari-Shaker, Dynatech) for 10 minutes.
In the microplates, the control cells like the treated cells were incubated in a medium without the compounds to be tested for 24 hours. The control cells are incubated in a medium without a drug throughout the whole experiment, while the treated cells are incubated in different media. These media contain the molecule to be tested at various concentrations: 10^-8 M, 10^-6 M and 10^-4 M. All the tests are carried out in 6 duplicates.
The conditions of data set [2]: cited from earlier work.
The next data set has as its system MCF-7 cells. The data set is described as follows: Effect on oestrogen-induced proliferation of MCF-7 cells. It counts as cell-based, human. The following applies: estradiol 10^-9 M.

Protocol for MCF-7 cells: MCF-7 cells and HeLa are cultivated in DMFM with phenol red to which 5% foetal calf serum is added. […] The experimental tests are carried out in DMEM without phenol red to which foetal calf serum treated with dextran carbon is added at 3%. […] The experiments using the different retinoids are carried out sheltered from the light so as to avoid any isomerisation.
So as to test the anti-proliferation effect of the retinoids, growth experiments under oestrogenic conditions were carried out on cells MCF-7 and T-47D. These are the human oestrogen-dependent mammary cancer cells which express the receptor to RE oestrogens. The effect of the molecules is evaluated after 7 days of culture in oestrogenic conditions (estradiol 10^-9 M) by dosing the cellular DNA. The cells are distributed in 24 well plates at a density of 2×10^4 cells per well. The tests with the different retinoids are carried out in triplicate and the culture medium is changed after 4 days of growth.

Consider `C/C(=C/c1ccc2c(c1)C(C)(C)CCC2(C)C)c1ccc(-c2nnn[nH]2)cc1` [CB92834], for which, in the data set with T-47D lineage, the “morphonuclear / anti-tumoral effect (in words)” value is “not linked to a cytotoxic effect; also recorded: mediated by an activation of the cellular death and/or an inhibition of the proliferation due to the induction of the cellular differentiation”. In addition, the “inhibition of the cellular lineages (in words)” value in data set [1] was “as active on the MTT test as the reference products tested; also recorded: more active on the oestrogen-sensitive lineages such as the mammary lineages ZR-75-1 and T-47D than on the pulmonary lineages”.
Take `CC1=C(/C=C/C(C)=C/C=C/C(C)=C/C(=O)O)C(C)(C)CCC1` [CB16178, all-trans retinoic acid, reference compound]: the “metabolism (in words)” value in data set [2] (chronic treatment) is on record as “an inducer of its own metabolism”. In data set [2], the “adverse effects in chronic treatment (in words)” value is “powerful effect of hypervitaminose, of mucocutaneous toxicity and of teratogenecity”.
As for `C/C(=C\c1ccc(C(=O)O)cc1)c1ccc2c(c1)C(C)(C)CCC2(C)C` [TTNPB, reference compound], the “effect on oestrogen-induced growth, MCF-7 (in words)” value in the data set with MCF-7 cells was “stronger inhibiting effect than the natural ligands (all-trans RA and 9-cis RA) and than LGD1069”. In addition, in the data set with T-47D lineage, the “morphonuclear / anti-tumoral effect (in words)” value was “strongly suggests a direct correlation between the cytotoxic effect of the molecule and its anti-tumoral activity; also recorded: exercises its anti-tumoral activity through a direct cytotoxic (cytocidal) effect”. Besides, in data set [1], the “inhibition of the cellular lineages (in words)” value is reported as “induces the strongest inhibition of the cellular lineages”.
